PMC8910920 (International Journal of Molecular Sciences, 2022)

How the values were obtained:
[1] = test system: CCI rats, heat hypersensitivity; experiment: CCI model of neuropathic pain, heat sensitivity (Hargreaves test); format: in vivo, rat
Description: The CCI model of neuropathic pain allowed the evaluation of the effect RGM8-51 on cold, heat and mechanical sensitivity, as assayed by the acetone test, the Hargreaves test, and the automatized von Frey test, respectively. RGM8-51 was applied either locally (i.pl.; 10 µg) in the affected paw or systemically (intraperitoneally, i.p., 10 and 30 mg/kg) and the effect evaluated before (Baseline) and after CCI surgery. The nocifensive response after administration of RGM8-51 was compared with that of vehicle, while non-operated animals and the uninjured (contralateral) hind paw in CCI animals were used as controls.
Adult male Sprague-Dawley rats (weighing 200–220 g/6–8 weeks old) were used in these experiments. All experimental procedures were conducted according to the animal welfare guidelines of the European Community (European Directive 2010/63/UE) to minimize animal suffering and were approved by Universidad Complutense de Madrid and Comunidad de Madrid ethical committees on animal experimentation (PROEX 207.8/21). […]
For behavioral testing, rats were placed in individual methacrylate boxes with a wire mesh floor, and after a period of 15 min acclimatization, the cold, heat and mechanical sensitivity of the ipsilateral and contralateral paws was determined. Cold sensitivity was assessed with the acetone test. In total, 100 µL acetone were locally applied to the plantar surface of the hind paw and the duration of the subsequent nocifensive response (licking, brushing, and flinching of the paw) was determined during 60 s. Acetone application and assessment were repeated 2 times with a 5 min interval and the sum of the two values was recorded. Heat sensitivity was determined with the Hargreaves test, which uses infrared light as a heat source, with a Hargreaves apparatus (Serie 8, Model 336, IITC Life Science, Woodland Hills, CA USA). The light beam was directed to the plantar surface of the hind paw and the time from the beginning of irradiation to the appearance of first paw withdrawal movement was measured (paw withdrawal latency). […]

rats = experiment: Behaviour observed after i.p. injection in the CCI study; format: in vivo, rat; conditions: i.p. 30 mg/kg
Description: This behavior lasted 3-5 min and could possibly be related to the TRPV1 agonist activity of compound RGM8-51.
Rats were allocated into 2 groups to receive RGM8-51 and vehicle (DMSO 2% i.pl., or 150 µL/kg i.p.) by either the i.pl. (10 µg in 20 µL; n = 5 animals) or i.p. (10 or 30 mg/kg in 150 µL/kg; n = 8 animals) route. Responses to cold/heat/mechanical stimulation were assessed 30 min before and 30 min after RGM8-51 or vehicle injection. Behavioral testing prior to drug administration served to ascertain baseline conditions and the stability of cold, heat and mechanical hypersensitivity after surgery. RGM-8-51 stock was prepared in DMSO (Sigma-Aldrich) and diluted in saline for injections. Data are given as the mean ± standard error of the mean (SEM) of the corresponding number of behavioral measurements/animals used. Statistical analysis was performed by using the paired t-test (GraphPad 8; San Diego, CA, USA).

In the case of `C[C@@H]1C(=O)N(C[C@H](Cc2ccccc2)N(Cc2ccccc2)Cc2ccccc2)[C@]1(Cc1ccccc1)C(=O)OC(C)(C)C` [RGM8-51, 4(S)-Benzyl-3S-methyl-4-(tert-butoxy)carbonyl-1-[(2′S-dibenzylamino-3′-phenyl)prop-1′-yl]-2-oxoazetidine], the “heat hypersensitivity in CCI rats” value ([1]; i.p. 10 and 30 mg/kg, dose-dependently) is reported as “effective in decreasing hypersensitivity to heat”, the “heat hypersensitivity in CCI rats” value ([1]; i.pl. 10 µg) is reported as “did not influence the animal response to heat” and the “heat perception in non-operated animals (baseline) or uninjured hind paw” value ([1]; rat, in vivo) is reported as “had no effect on heat perception”. For the same compound, the “duration of writhing behavior” value (rats) was 3 to 5 min and the writhing behavior (rats) was “writhing behavior was observed in a small number of animals”.
